In US20230416330A1, “Optimized GIP Peptide Analogues” (Antag Therapeutics ApS, priority 2019, published 2023):
Starred links: 1 amine or outer side, 2 acyl side, 3 side chain; linkers in the order of their positions; H or OH if unused. Non-standard residues stand in square brackets, D forms with d. Residues, ends and D or L forms follow the SMILES beside them. Groups on a side chain read outwards from the residue. *: point of attachment. C18 diacid = O=C(O)CCCCCCCCCCCCCCCCC(=O)*; C16 diacid = O=C(O)CCCCCCCCCCCCCCC(=O)*; γGlu = O=C(O)[C@H](CCC(=O)[*:2])N[*:1]; Adipoyl = O=C(CCCCC(=O)[*:2])[*:1]; Glutaryl = O=C(CCCC(=O)[*:2])[*:1]; AEEA = NCCOCCOCC(=O)O; Aib = CC(C)(N)C(=O)O

How the values were obtained:
[1] = Solubility by visual inspection of peptide solutions; type: physicochemical
Summary of the method: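 Peptides dissolved at 1, 5, 7.5 or 15 mg/ml in 50 mM sodium phosphate pH 7.4 or water adjusted to pH 7.4 with NaOH, with gentle mixing. Immediate solubility judged visually as a clear, colorless solution.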

[2] = Physical stability: fibril formation in Thioflavin T (ThT) assay with agitation; type: physicochemical; details: 25° C., agitation
Summary of the method: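 Peptides at 1, 5, 7.5 or 15 mg/ml in 50 mM sodium phosphate pH 7.4 or in water adjusted to pH 7.4 with NaOH, filtered 0.22 μm, with ThT added. Wells held a 3 mm silica bead under 300 rpm orbital agitation at 25° C. Emission at 486 nm tracked continuously; lag time = 10% of transition above baseline.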

human GIP receptor = target: T1, human GIP receptor (Homo sapiens, UniProt P48546); assay: cAMP assay Alternative 2 (Gaddum assay), antagonist potency pKb; type: cell-based; details: Table 2C; Gaddum equation, single antagonist dose; HEK-293 hGIPR; read-out: nM (Kb)
T1 construct: host or cells: HEK-293 cells, transient transfection (Lipofectamine 2000), cDNA in pCMV-Script vector
T1 sequence (P48546 22-466): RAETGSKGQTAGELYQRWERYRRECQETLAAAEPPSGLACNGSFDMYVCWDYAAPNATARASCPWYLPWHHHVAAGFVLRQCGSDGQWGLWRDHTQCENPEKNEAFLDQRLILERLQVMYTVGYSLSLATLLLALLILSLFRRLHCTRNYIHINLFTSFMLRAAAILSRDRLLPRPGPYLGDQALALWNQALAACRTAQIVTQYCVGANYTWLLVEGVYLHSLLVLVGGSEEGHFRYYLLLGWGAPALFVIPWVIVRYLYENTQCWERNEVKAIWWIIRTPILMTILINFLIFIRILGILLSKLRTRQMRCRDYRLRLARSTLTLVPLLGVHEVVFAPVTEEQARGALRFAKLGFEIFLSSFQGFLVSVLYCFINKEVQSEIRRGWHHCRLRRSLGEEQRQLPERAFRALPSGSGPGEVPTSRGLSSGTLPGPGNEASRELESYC
Experimental: HEK293 cells were cultured in 10% CO2 and 37° C. in Dulbecco's modified Eagle's medium supplemented with 10% fetal bovine serum, 2 mM glutamine, 180 units/ml penicillin, and 45 µg/ml streptomycin. Transient transfection with hGIPR for the CisBio assay from Table 2C was performed by using Lipofectamine 2000.
Antagonist potency (pKb) was estimated in a functional setting. The estimated pKb values were calculated from the shifts of the agonist-concentration-response curves in the presence of a single dose of GIP peptide antagonists using the Gaddum equation: pKb=log(DR-1)-log(B), where DR (EC50′/EC50) is the dose ratio calculated from EC50 of GIP1-42 obtained in the presence and absence (EC50) of antagonist, and B is the antagonist concentration used.
The in vitro functional assessment of compounds towards human GIP receptor was determined in HEK-293 cells transiently expressing the receptor. On the day of the assay, cells were resuspended in HBSS buffer (Gibco, 14025-50) supplemented with […] (Gibco, 15630-106), 0.1% Pluronic F-68 (Gibco, 24040-032) and 0.1% casein (Sigma, C4765), and plated in 384-well plates at a density of 3500 cells/well. The GIP peptide analogues of the present disclosure were diluted in HBSS buffer supplemented with 20 mM HEPES, 0.1% pluronic, 0.1% casein and 500 uM IBMX. […] Increasing dose of agonist (GIP1-42) was subsequently added to cells and incubated for additionally 30 min at 37° C. The intracellular cAMP was quantitatively determined using the CisBio cAMP Dynamic 2 HTRF Assay Kit. The assay is based on a competition between native cAMP produced by cells and cAMP labeled with the dye d2 for binding to a cryptate labeled antibody. The specific signal (i.e. energy transfer signal) is inversely proportional to the concentration of cAMP in the sample.
The cAMP-d2 conjugate and the antibody anti-cAMP-Cryptate, both diluted in lysis buffer provided in the kit, were added to the cells according to the manufacturer's protocol. The resulting competitive assay was incubated for 60 minutes at room temperature, and the signal was detected by using a PerkinElmer Envision® instrument with excitation at 320 nm and emission at 665 nm and 620 nm. The HTRF ratio (emission at 665 nm/620 nm*10,000) is inversely proportional to the amount of cAMP present and is converted to nM cAMP per well using a cAMP standard curve.

| Structure (SMILES) | Visual appearance ([1]; 1 mg/ml, TFA, Phosphate (7.4)) | Avr lag time (h) ([2]; 1 mg/ml, TFA, Phosphate (7.4)) | Kb (human GIP receptor) [nM] | Visual appearance ([1]; 7.5 mg/ml, Na, MilliQ (8)) | Visual appearance ([1]; 15 mg/ml, Na, MilliQ (8)) | Avr lag time (h) ([2]; 7.5 mg/ml, Na, MilliQ (8)) | Avr lag time (h) ([2]; 15 mg/ml, Na, MilliQ (8)) |
| --- | --- | --- | --- | --- | --- | --- | --- |
| CC[C@H](C)[C@H](NC(=O)[C@H](CCCCN)NC(=O)[C@H](CCC(=O)O)NC(=O)[C@H](CC(C)C)NC(=O)C(C)(C)NC(=O)[C@@H](NC(=O)[C@H](CO)NC(=O)[C@H](Cc1ccc(O)cc1)NC(=O)[C@H](CCC(=O)O)NC(=O)[C@H](CO)NC(=O)[C@@H](NC(=O)[C@H](Cc1ccccc1)NC(=O)[C@@H](NC(=O)CNC(=O)CCCC(=O)O)[C@@H](C)O)[C@@H](C)CC)[C@@H](C)CC)C(=O)N[C@@H](CCCCNC(=O)COCCOCCNC(=O)COCCOCCNC(=O)CC[C@H](NC(=O)CCCCCCCCCCCCCCCCC(=O)O)C(=O)O)C(=O)N[C@@H](CCC(N)=O)C(=O)N[C@@H](CCC(N)=O)C(=O)N[C@@H](CCC(=O)O)C(=O)N[C@@H](Cc1ccccc1)C(=O)N[C@H](C(=O)N[C@@H](CCC(=O)O)C(=O)N[C@@H](Cc1c[nH]c2ccccc12)C(=O)N[C@@H](CC(C)C)C(=O)N[C@@H](CC(C)C)C(=O)N[C@@H](C)C(=O)N[C@@H](CCC(N)=O)C(=O)N[C@@H](CCCCN)C(=O)N1CCC[C@H]1C(=O)N[C@@H](CO)C(=O)N[C@@H](CO)C(=O)NCC(=O)N[C@@H](C)C(=O)N1CCC[C@H]1C(=O)N1CCC[C@H]1C(=O)N1CCC[C@H]1C(=O)N[C@@H](CO)C(=O)O)C(C)C [AT705] (Glutaryl-GTFISEYSI[Aib]LEKIK([AEEA-AEEA-γGlu-C18 diacid])QQEFVEWLLAQKPSSGAPPPS-OH) | Clear | fnd (Fnd = fibrils not detected within experiment time (96 hours) with agitation.) | 0.23 | – | – | – | – |
| CC[C@H](C)[C@H](NC(=O)[C@H](CCCCN)NC(=O)[C@H](CCC(=O)O)NC(=O)[C@H](CC(C)C)NC(=O)C(C)(C)NC(=O)[C@@H](NC(=O)[C@H](CO)NC(=O)[C@H](Cc1ccc(O)cc1)NC(=O)[C@H](CCC(=O)O)NC(=O)[C@H](CO)NC(=O)[C@@H](NC(=O)[C@H](Cc1ccccc1)NC(=O)[C@@H](NC(=O)CNC(=O)CCCC(=O)O)[C@@H](C)O)[C@@H](C)CC)[C@@H](C)CC)C(=O)N[C@@H](CCCCNC(=O)COCCOCCNC(=O)COCCOCCNC(=O)CC[C@H](NC(=O)CCCCCCCCCCCCCCCCC(=O)O)C(=O)O)C(=O)N[C@@H](CCC(N)=O)C(=O)N[C@@H](CCC(N)=O)C(=O)N[C@@H](CCC(=O)O)C(=O)N[C@@H](Cc1ccccc1)C(=O)N[C@H](C(=O)N[C@@H](CCC(=O)O)C(=O)N[C@@H](Cc1c[nH]c2ccccc12)C(=O)N[C@@H](CC(C)C)C(=O)N[C@@H](CC(C)C)C(=O)N[C@@H](C)C(=O)N[C@@H](CCC(N)=O)C(=O)N[C@@H](CCCCN)C(=O)N1CCC[C@H]1C(=O)N[C@@H](CO)C(=O)N[C@@H](CO)C(=O)NCC(=O)N[C@@H](C)C(=O)N1CCC[C@H]1C(=O)N1CCC[C@H]1C(=O)N1CCC[C@H]1C(=O)N[C@@H](CO)C(N)=O)C(C)C [AT713] (Glutaryl-GTFISEYSI[Aib]LEKIK([AEEA-AEEA-γGlu-C18 diacid])QQEFVEWLLAQKPSSGAPPPS-NH2) | Clear | fnd (Fnd = fibrils not detected within experiment time (96 hours) with agitation.) | 0.31 | Clear | Clear | fnd (Fnd = fibrils not detected within experiment time (96 hours) with agitation.) | fnd (Fnd = fibrils not detected within experiment time (96 hours) with agitation.) |
| CC[C@H](C)[C@H](NC(=O)[C@H](CCCCN)NC(=O)[C@H](CCC(=O)O)NC(=O)[C@H](CC(C)C)NC(=O)C(C)(C)NC(=O)[C@@H](NC(=O)[C@H](CO)NC(=O)[C@H](Cc1ccc(O)cc1)NC(=O)[C@H](CCC(=O)O)NC(=O)[C@H](CO)NC(=O)[C@@H](NC(=O)[C@H](Cc1ccccc1)NC(=O)[C@@H](NC(=O)CNC(=O)[C@@H](N)CCC(=O)O)[C@@H](C)O)[C@@H](C)CC)[C@@H](C)CC)C(=O)N[C@@H](CCCCNC(=O)C(C)(C)NC(=O)CCCCCCCCCCCCCCC(=O)O)C(=O)N[C@@H](CCC(N)=O)C(=O)N[C@@H](CCC(N)=O)C(=O)N[C@@H](CCC(=O)O)C(=O)N[C@@H](Cc1ccccc1)C(=O)N[C@H](C(=O)N[C@@H](CCC(=O)O)C(=O)N[C@@H](Cc1c[nH]c2ccccc12)C(=O)N[C@@H](CC(C)C)C(=O)N[C@@H](CC(C)C)C(=O)N[C@@H](C)C(=O)N[C@@H](CCC(N)=O)C(=O)N[C@@H](CCCCN)C(=O)N1CCC[C@H]1C(=O)N[C@@H](CO)C(=O)N[C@@H](CO)C(=O)NCC(=O)N[C@@H](C)C(=O)N1CCC[C@H]1C(=O)N1CCC[C@H]1C(=O)N1CCC[C@H]1C(=O)N[C@@H](CO)C(=O)O)C(C)C [AT720] (H-EGTFISEYSI[Aib]LEKIK([Aib-C16 diacid])QQEFVEWLLAQKPSSGAPPPS-OH; N-terminus assumed) | – | – | 0.29 | Clear | Clear | fnd (Fnd = fibrils not detected within experiment time (96 hours) with agitation.) | fnd (Fnd = fibrils not detected within experiment time (96 hours) with agitation.) |
| CC[C@H](C)[C@H](NC(=O)[C@H](CCCCN)NC(=O)[C@H](CCC(=O)O)NC(=O)[C@H](CC(C)C)NC(=O)C(C)(C)NC(=O)[C@@H](NC(=O)[C@H](CO)NC(=O)[C@H](Cc1ccc(O)cc1)NC(=O)[C@H](CCC(=O)O)NC(=O)[C@H](CO)NC(=O)[C@@H](NC(=O)[C@H](Cc1ccccc1)NC(=O)[C@@H](NC(=O)CNC(=O)CCCCC(=O)O)[C@@H](C)O)[C@@H](C)CC)[C@@H](C)CC)C(=O)N[C@@H](CCCCNC(=O)COCCOCCNC(=O)COCCOCCNC(=O)CC[C@H](NC(=O)CCCCCCCCCCCCCCCCC(=O)O)C(=O)O)C(=O)N[C@@H](CCC(N)=O)C(=O)N[C@@H](CCC(N)=O)C(=O)N[C@@H](CCC(=O)O)C(=O)N[C@@H](Cc1ccccc1)C(=O)N[C@H](C(=O)N[C@@H](CCC(=O)O)C(=O)N[C@@H](Cc1c[nH]c2ccccc12)C(=O)N[C@@H](CC(C)C)C(=O)N[C@@H](CC(C)C)C(=O)N[C@@H](C)C(=O)N[C@@H](CCC(N)=O)C(=O)N[C@@H](CCCCN)C(=O)N1CCC[C@H]1C(=O)N[C@@H](CO)C(=O)N[C@@H](CO)C(=O)NCC(=O)N[C@@H](C)C(=O)N1CCC[C@H]1C(=O)N1CCC[C@H]1C(=O)N1CCC[C@H]1C(=O)N[C@@H](CO)C(=O)O)C(C)C [AT753] (Adipoyl-GTFISEYSI[Aib]LEKIK([AEEA-AEEA-γGlu-C18 diacid])QQEFVEWLLAQKPSSGAPPPS-OH) | – | – | 0.23 | – | – | – | – |
